Results as given in patent US10576050B2, “Methods and compositions for treatment of cancer” (ONCONOVA THERAPEUTICS, INC., priority 2012, dated 2020).
Values joined by “and” are separate entries in the source; they are usually repeats but may differ in a detail not shown here. Identical values can stand only once.

Tests used:
[1] = Phase I/II trials of intravenous Rigosertib in MDS patients: bone marrow blast response and overall survival
Experimental: According to one embodiment, Rigosertib was given as an intravenous infusion to MDS patients. In one trial, patients received 800 mg Rigosertib for three to five days every other week. According to another embodiment, patients received 650 to 1,700 mg Rigosertib for three to six days every other week. According to yet another embodiment, patients were initially treated with 800 mg to 1,500 mg Rigosertib for two days every week for three weeks followed by one week without treatment. The treatment schedule in these studies was later changed to 1,800 mg Rigosertib for three days every other week.
In this Example, bone marrow (BM) response and overall survival (OS) were analyzed in 60 patients (pts) with MDS, including 51 patients with refractory anemia and excess blasts (RAEB) and 9 patients with refractory cytopenia and multilineage dysplasia (RCMD) enrolled in 4 independent Phase 1/II clinical trials.
The patients were treated with Rigosertib administered as a continuous intravenous infusion (CIV) from 2 to 6 days weekly or every other week with BM response initially assessed per protocol by week 4 or 8 and every 8 weeks thereafter. Overall survival (OS) analyses were performed by the method of Kaplan-Meier.

[2] = Phase 1 oral bioavailability study of Rigosertib soft gelatin capsule in MDS patients, fasted and fed, vs IV; format: in vivo, human; details: for AUC / Cmax / Tmax / half-life / bioavailability: human, plasma, MDS patients
Experimental: A Phase 1 study was conducted to assess oral bioavailability of a novel oral ON 01910.Na (Rigosertib) soft gelatin capsule formulation of Example 1 in MDS patients under fasted and fed conditions. This was a single-dose, three-treatment, three-period sequential design for studying the effects of food on the bioavailability of an immediate-release soft gelatin capsule formulation. The following dosing groups were tested in 12 patients: IV Dose 800 mg over 24 hours and oral dose 560 mg (2×280 mg capsules) under fasting and fed conditions. Plasma samples were collected pre-dose, over 32 hours (IV dose) or 8 hours (oral dose) after dose initiation. Rigosertib plasma levels were analyzed by a validated LC/MS/MS method. Pharmacokinetic parameters were estimated by non-compartmental analysis (WinNonlin®).

[3] = Phase II randomized two-arm study of oral Rigosertib (560 mg bid, intermittent or continuous) in transfusion-dependent lower risk MDS patients; details: for median duration of treatment: FIG. 5
Experimental: Methods: This is a randomized, two-arm study of oral Rigosertib (560 mg bid) administered either intermittently (2 out of 3 weeks) or continuously. Transfusion-dependent patients received at least 4 units RBC transfusions over 8 weeks before randomization as well as transfusions and erythrocyte stimulating agents (ESAs) while on study.
The study design in low or independent transfusion-dependent MDS patients: 43 patients enrolled and randomized 1:1 in two groups. The first group was administered 560 mg capsules BID in days 1-14 of 21 day cycle. The second group was administered 560 mg capsules BID in days 1-21 of 21 day cycle. […] The protocol was amended for the […] on intermittent dosing.
In these cases 560 mg bid dosing was replaced with 560 mg am (30 min+ before breakfast) and 280 mg 2 hs+ after lunch and 30 min+ before dinner. Dysuria questionnaire (American Urological Association) was provided to all patients at baseline, 3 weeks and every 3 cycles thereafter and recommend for vigorous hydration and bicarbonate prn.
The ongoing phase II trial 09-05 is designed to evaluate oral Rigosertib as a single agent in transfusion-dependent lower risk MDS patients. This trial is a randomized, two-arm study of oral Rigosertib (560 mg bid) administered either intermittently (2 out of 3 weeks) or continuously. Transfusion-dependent patients must have received at least 4 units of RBC transfusions over 8 weeks before randomization and can receive transfusions and erythrocyte stimulating agents (ESAs) while on study.

[4] = 39 RAEB-1, 2, t-pts refractory or relapsing after azacitidine/decitabine
[5] = higher risk MDS patients who had previously failed Vidaza or Dacogen
[6] = iv, 800 mg, 800 mg IV (24 hr infusion)
[7] = po, 560 mg, 560 mg Oral (Fasting)
[8] = 34 patients dosed intermittently
[9] = individual transfusion responders

With `COc1cc(OC)c(/C=C/S(=O)(=O)Cc2ccc(OC)c(NCC(=O)[O-])c2)c(OC)c1.[Na+]` [Rigosertib, sodium (E)-2-{2-methoxy-5-[(2′,4′,6′-trimethoxystyrylsulfonyl)methyl]phenylamino}acetate] the “patients still alive at 49 weeks” value ([1]; 15 patients refractory/relapsing after hypomethylating agents, 3-day infusions 1800 mg/day every other week) was 47%, the “N patients with Progressive Disease” value [1, 4] was 3 and the “N patients with Stable BM Response” value [1, 4] was 14. For the same molecule, the “N patients with ≥50% Blast Decrease” value [1, 4] was 13, the “Median OS” value ([1]; 39 pts refractory/relapsing after azacitidine/decitabine, BM response Not Assessed) was 11 weeks and the “Median OS” value ([1]; 39 pts refractory/relapsing after azacitidine/decitabine, Progressive Disease) was 10 weeks. The “Median OS” value ([1]; 39 pts refractory/relapsing after azacitidine/decitabine, Stable BM Response) was 40 weeks, the “Median OS” value ([1]; 39 pts refractory/relapsing after azacitidine/decitabine, ≥50% Blast Decrease) was 44 weeks and the “N patients with Progressive Disease” value ([1]; 51 RAEB-1, 2, t-pts) was 4. The “N patients with Stable BM Response” value ([1]; 51 RAEB-1, 2, t-pts) was 21, the “N patients with ≥50% Blast Decrease” value ([1]; 51 RAEB-1, 2, t-pts) was 16 and the “Median OS” value ([1]; 51 RAEB-1, 2, t-pts, BM response Not Assessed) was 11 weeks. For the same molecule, the “Median OS” value ([1]; 51 RAEB-1, 2, t-pts, Progressive Disease) was 13.5 weeks, the “Median OS” value ([1]; 51 RAEB-1, 2, t-pts, Stable BM Response) was 36 weeks and the “Median OS” value ([1]; 51 RAEB-1, 2, t-pts, ≥50% Blast Decrease) was 48 weeks. The “patients with hematological improvements” value ([1]; 60 MDS patients, CIV) was “Nine”, the tolerability of infusions ([1]; CIV infusions, MDS patients) was “well tolerated without evidence of bone marrow myelotoxicity” and the median survival ([1]; Intermediate-1 risk MDS patients, previously failed azacitidine or decitabine) was “about 77 weeks”. The median survival ([1]; Intermediate-2 risk MDS patients, previously failed azacitidine or decitabine) was “about 37 weeks”, the “decrease in immature bone marrow cells” value ([1]; MDS patients who had previously failed azacitidine or decitabine) was “about 50%” and the “decrease or stabilization in the number of immature bone marrow cells (blasts)” value ([1]; MDS patients, intravenous infusion, in general) was at least 50%. For the same molecule, the “Median OS” value ([1]; RAEB-1, 17 of 60 MDS patients, CIV) was 43 weeks, the “Median OS” value ([1]; RAEB-2, 21 of 60 MDS patients, CIV) was 37 weeks and the “Median OS” value ([1]; RAEB-T, 13 of 60 MDS patients, CIV) was 20 weeks. The “Median OS” value ([1]; RCMD, 9 of 60 MDS patients, CIV) was 98 weeks, the “decrease or stabilization in the number of immature bone marrow cells” value [1, 5] was at least 50% and the median survival [1, 5] was “about 36 weeks”. For the same molecule, the “decrease of AUC after a meal as compared to fasting conditions” value ([2]; 560 mg oral, fed vs fasting) was 61%, the “decrease of Cmax after a meal as compared to fasting conditions” value ([2]; 560 mg oral, fed vs fasting) was 77% and the AUC [2, 6] was 52.7 ± 19.2 µg·h/mL. For the same molecule, the Cmax [2, 6] was 3.14 ± 1.13 µg/mL, the Tmax [2, 6] was 2.91 ± 1.3 h and the half-life [2, 6] was 3.25 ± 0.97 h. For the same molecule, the AUC [2, 7] was 6.89 ± 3.98 µg·h/mL, the Cmax [2, 7] was 2.42 ± 1.26 µg/mL and the Tmax [2, 7] was 1 ± 0.45 h. It also gave a bioavailability [2, 7] of 34.9 ± 17.6%, a half-life [2, 7] of 2.79 ± 1.23 h and an AUC ([2]; po, 560 mg, 560 mg Oral (Fed)) of 2.71 ± 1.51 µg·h/mL. It also gave a Cmax ([2]; po, 560 mg, 560 mg Oral (Fed)) of 0.56 ± 0.31 µg/mL, a Tmax ([2]; po, 560 mg, 560 mg Oral (Fed)) of 2.82 ± 1.15 h and a bioavailability ([2]; po, 560 mg, 560 mg Oral (Fed)) of 13.8 ± 6.04%. For the same molecule, the half-life ([2]; po, 560 mg, 560 mg Oral (Fed)) was 2.61 ± 0.93 h, the “overall tolerability of oral Rigosertib” value ([3]; 560 mg bid) was “well tolerated” and the “patients achieving TI, intent-to-treat analysis” value ([3]; 14/39 patients, intermittent dosing) was 36%. The “patients achieving transfusion independence” value ([3]; 15 patients treated with intermittent dosing for at least 8 weeks) was 47%, the “median duration of transfusion independence” value ([3]; 15 responders, intermittent dosing (conclusion)) was 17 weeks and the “patients achieving TI, intent-to-treat analysis” value ([3]; 17/48 patients (conclusion)) was 35%. The “patients with transfusion independence” value ([3]; 26 evaluable patients (8 wks+ treatment), intermittent 560 mg bid, FIG. 9) was 50% and 46%, the “Abdominal Pain/discomfort, GRADE 2 incidents” value [3, 8] was 1 and the “Abdominal Pain/discomfort, GRADE 3 incidents” value [3, 8] was 0. The “Abdominal Pain/discomfort, TOTAL %” value [3, 8] was 3%, the “Diarrhea, GRADE 2 incidents” value [3, 8] was 1 and the “Diarrhea, GRADE 3 incidents” value [3, 8] was 0. For the same molecule, the “Diarrhea, TOTAL %” value [3, 8] was 3%, the “Fatigue, GRADE 2 incidents” value [3, 8] was 5 and the “Fatigue, GRADE 3 incidents” value [3, 8] was 0. For the same molecule, the “Fatigue, TOTAL %” value [3, 8] was 15%, the “Hematuria or Cytitis, GRADE 2 incidents” value [3, 8] was 1 and the “Hematuria or Cytitis, GRADE 3 incidents” value [3, 8] was 5. The “Hematuria or Cytitis, TOTAL %” value [3, 8] was 18%, the “Insomnia, GRADE 2 incidents” value [3, 8] was 1 and the “Insomnia, GRADE 3 incidents” value [3, 8] was 0. For the same molecule, the “Insomnia, TOTAL %” value [3, 8] was 3%, the “Nausea, GRADE 2 incidents” value [3, 8] was 3 and the “Nausea, GRADE 3 incidents” value [3, 8] was 0. For the same molecule, the “Nausea, TOTAL %” value [3, 8] was 9%, the “Neutropenia, GRADE 2 incidents” value [3, 8] was 2 and the “Neutropenia, GRADE 3 incidents” value [3, 8] was 2. For the same molecule, the “Neutropenia, TOTAL %” value [3, 8] was 6%, the “Urinary urgency, GRADE 2 incidents” value [3, 8] was 12 and the “Urinary urgency, GRADE 3 incidents” value [3, 8] was 0. For the same molecule, the “Urinary urgency, SAE” value [3, 8] was 1, the “Urinary urgency, TOTAL %” value [3, 8] was 35% and the “patients achieving transfusion independence” value ([3]; 36 patients on intermittent dosing treated for at least 8 consecutive weeks) was 39%. The “Responders (overall transfusion response)” value (shortened to “Responders”) ([3]; Continuous regimen) was 2, the “Responders” value ([3]; Intermittent regimen) was 13 and the “Responders” value ([3]; Total) was 15. For the same molecule, the “patients with grade 2+ urinary side effects” value ([3]; continuous dosing arm) was 5 of 9, the “median duration of treatment” value ([3]; continuous dosing, 9 patients) was 24 weeks and the “patients achieving transfusion independence” value ([3]; continuous dosing, nine patients (8 treated for at least 8 weeks)) was “two”. The patients progressed ([3]; four evaluable RAEB patients) was “one”, the “patients achieving bone marrow complete response according to IWG 2006 criteria” value ([3]; four evaluable RAEB patients, one unconfirmed) was “three” and the “Response (bone marrow, IWG 2006 criteria)” value ([3]; individual RAEB-1/RAEB-2 patients) was “BMCR (2×) and BMCRu”. The “Response week Duration (transfusion independence)” value [3, 9] was ≥ 48 weeks and ≥ 37 weeks and 17 weeks and 37+ weeks and 9 weeks and 28 weeks and 30 weeks and 8 weeks and 17+ weeks and 12 weeks and 14+ weeks and 48+ weeks, the “Response week Onset (transfusion response)” value [3, 9] was 1 weeks (8×) and 24 weeks and 14 weeks and 4 weeks and 19 weeks and 13 weeks and the “patients with urinary grade 2+ toxicity” value ([3]; intermittent dosing with option of dose interruption/reduction) was 4/20. For the same molecule, the “median duration of treatment” value ([3]; intermittent dosing, 34 patients) was “not reached”, the “patients achieving transfusion independence” value ([3]; intermittent dosing, at least 8 consecutive weeks, 15 patients (conclusion)) was 45% and the “interaction between Rigosertib and ESA” value ([3]; lower-risk transfusion dependent MDS, concomitant ESA) was “synergy”. For the same molecule, the “patients developing grade 2 urinary toxicity” value ([3]; twelve patients, 560 mg AM and 280 mg PM, median 6 weeks) was “one”, the “Bone marrow blast values” ([3]; week 15 follow-up, individual RAEB-1/RAEB-2 patients) was 4% and 10% and 77% and 3% and the “Bone marrow blast values” ([3]; week 30 follow-up, individual RAEB-1/RAEB-2 patients) was 4% and 9%. For the same molecule, the “Bone marrow blast values” ([3]; week 45 follow-up, individual RAEB-1/RAEB-2 patients) was 5% and the “Bone marrow blast values” ([3]; week 60 follow-up, individual RAEB-1/RAEB-2 patients) was 5%.
